One substance from patent EP3760185A1, “COSMETIC COMPOSITION TO PREVENT AND DELAY SKIN AGING” (Riccio, Rodolfo, priority 2019, dated 2021) can be followed below.

This experiment deals with actin. Kind of experiment: polymerization of actin (in vitro test). The format is cell-based. The note with it: compared to control. An excerpt: Typically, the selected or purified maltodextrins described herein have the following properties: • a moisturizing and gelling (film-forming) action; • a stimulating action of fibroblasts and keratinocytes proliferation, responsible for the formation of granulation tissue and producers of collagen, elastin, proteoglycans, and other glycoproteins that intervene in the tissue regeneration phase • a skin regenerating action, found with representative in vitro tests such as synthesis of fibronectin, polymerization of actin, expression of enzymes such as Hyaluronan Synthase-2 • a skin protective action following the formation of an epidermal barrier

For phosphatidic acid [PA], the “polymerization of actin increase” value is given as 100%.
